ChEMBL document CHEMBL1123341, “Thromboxane A2 synthase inhibitors. 5-(3-Pyridylmethyl)benzofuran-2-carboxylic acids” (J Med Chem, 1986)
Values after ≈ are worked out from the molar mass of the structure shown.

Assays:
[1] = biological target: T1, Thromboxane-A synthase (Homo sapiens) (UniProt P24557); test: In vitro inhibition of TXA2 biosynthesis in human microsomal platelets; type: functional, microsomes; conditions: Microsome
T1 sequence (whole entry): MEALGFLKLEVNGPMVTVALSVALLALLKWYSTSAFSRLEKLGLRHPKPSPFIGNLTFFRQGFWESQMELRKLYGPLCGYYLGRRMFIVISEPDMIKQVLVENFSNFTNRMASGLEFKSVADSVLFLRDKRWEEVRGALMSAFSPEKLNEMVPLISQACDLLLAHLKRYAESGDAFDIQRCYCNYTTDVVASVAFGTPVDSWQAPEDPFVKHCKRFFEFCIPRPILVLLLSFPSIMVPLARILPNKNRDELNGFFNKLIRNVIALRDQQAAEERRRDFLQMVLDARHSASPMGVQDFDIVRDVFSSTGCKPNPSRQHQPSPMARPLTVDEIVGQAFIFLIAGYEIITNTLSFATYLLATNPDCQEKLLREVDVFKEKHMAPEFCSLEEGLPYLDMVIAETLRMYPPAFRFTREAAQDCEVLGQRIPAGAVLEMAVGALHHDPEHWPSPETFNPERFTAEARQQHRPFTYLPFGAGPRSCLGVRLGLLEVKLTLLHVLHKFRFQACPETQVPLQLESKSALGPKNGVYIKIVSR

[2] = biological target: T1, Thromboxane-A synthase (Homo sapiens); test: In vitro inhibition of TXA2 biosynthesis in human microsomal platelets relative to Sodium Furegrelate; type: functional, microsomes; conditions: Microsome
[3] = biological target: T1, Thromboxane-A synthase (Homo sapiens); test: Compound was tested in vitro for its ability to inhibit TXA2 biosynthesis in human microsomal platelets; type: functional, microsomes; conditions: Microsome
[4] = test system: Thromboxane-A synthase (Cavia porcellus); test: Compound was tested for thromboxane synthase activity in microsomal preparations from guinea pig lung(GPLM)
[5] = biological target: T1, Thromboxane-A synthase (Homo sapiens); test: Compound was tested for thromboxane synthase activity in microsomal preparations from human platelets(HPM); type: functional
[6] = test system: Thromboxane-A synthase (Canis lupus familiaris); test: Compound was tested for thromboxane synthase activity in microsomal preparations from dog lung(DLM)

SMILES | ED50 [1] [µg/mL] | Relative potency [2] | also measured
Cc1cc(Cc2cccnc2)cc2cc(C(=O)O)oc12 | 0.03 (≈ 0.112 µM) | 0.3 | 
O=C(O)c1cc2cc(-c3cccnc3)ccc2o1 | 0.03 (≈ 0.125 µM) | 0.3 | 
O=C(O)c1cc2cc(Cc3ccc(Cl)nc3)ccc2o1 |  |  | ED50 [3]: > 10 µg/mL; Relative potency [3]: < 0.001
NC(=O)c1cc2cc(Cc3cccnc3)ccc2o1 | 0.3 (≈ 1.19 µM) | 0.003 | 
COc1cc(Cc2cccnc2)cc2cc(C(=O)O)oc12 | 0.03 (≈ 0.106 µM) | 0.3 | 
O=C(O)c1cc2ccc(Cc3cccnc3)cc2o1 | 0.03 (≈ 0.118 µM) | 0.3 | 
C/C(=C\c1ccc(Cc2cccnc2)cc1)C(=O)O | 0.03 (≈ 0.118 µM) | 0.3 | ED50 [4]: 0.2 µg/mL (≈ 0.79 µM); ED50 [5]: 0.03 µg/mL (≈ 0.118 µM); ED50 [6]: 0.003 µg/mL (≈ 0.0118 µM)
O=C(O)c1cc2cc(Cc3cccnc3Cl)ccc2o1 |  |  | ED50 [3]: 0.1 µg/mL (≈ 0.348 µM); Relative potency [3]: 0.1
O=C(O)c1cc2cc(Cc3ccc[n+]([O-])c3)ccc2o1 |  |  | ED50 [3]: > 10 µg/mL; Relative potency [3]: < 0.001
O=C(O)c1cc2cc(Cc3cnccc3Cl)ccc2o1 | > 10 | < 0.0001 | 
O=C(O)c1cc2cc(Cc3cccnc3)cc(Br)c2o1 | 0.03 (≈ 0.0903 µM) | 0.3 | 
CCCCC[C@H](O)/C=C/[C@H]1C2CC(N=N2)[C@@H]1C/C=C\CCCC(=O)O (some centres not stated) |  |  | ED50 [3]: 0.03 µg/mL (≈ 0.0861 µM); Relative potency [3]: 0.3
O=C(O)c1cc2ccc(CCc3cccnc3)cc2o1 | 3 (≈ 11.2 µM) | 0.003 | 
Cc1c(C(=O)O)oc2ccc(Cc3cccnc3)cc12 | 0.03 (≈ 0.112 µM) | 0.3 | 
O=C(c1cccnc1)c1ccc2oc(C(=O)O)cc2c1 | 3 (≈ 11.2 µM) | 0.003 | 
O=C(O)c1cc2cc(CCc3cccnc3)ccc2o1 | 3 (≈ 11.2 µM) | 0.003 | 
O=C(O)c1cc2cc(Cc3cccnc3)ccc2o1 | 0.01 (≈ 0.0395 µM) |  | ED50 [5]: 0.01 µg/mL (≈ 0.0395 µM)
